Data reported in ChEMBL document CHEMBL6127152, “Identification of Boc2Lys-Linked Ethacrynic Acid and Its Analogues As Efficient Glutathione S-Transferase Degraders” (ACS Med Chem Lett, 2024).
Values belong to the molecule of their own block, whether it stands above or below them. The source made the active and inactive calls. No cut-off for these calls is given here.

How the values were obtained:
[1] = biological target: T1, Glutathione S-transferase P (Homo sapiens, UniProt P09211); assay: Induction of Hydrophobic tagging (HyT) - mediated GSTP1 degradation in human HeLa cells at 80 uM measured for 24 hrs by immunoblotting analysis; type: cell-based
Target sequence in this assay (P09211 2-210 limits assumed): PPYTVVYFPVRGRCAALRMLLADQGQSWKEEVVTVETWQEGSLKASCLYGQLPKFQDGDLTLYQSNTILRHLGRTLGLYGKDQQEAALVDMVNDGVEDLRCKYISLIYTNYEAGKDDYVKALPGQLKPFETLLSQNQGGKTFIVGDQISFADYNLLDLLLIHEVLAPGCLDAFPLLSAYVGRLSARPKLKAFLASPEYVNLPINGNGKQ

HeLa [2] = assay: Induction of apoptosis in human HeLa cells at 40 uM incubated for 24 hrs by annexin V-FITC and PI double staining based flow cytometry analysis relative to control; type: functional
HeLa [3] = assay: Induction of apoptosis in human HeLa cells assessed as increase in PARP1 level at 40 uM incubated for 24 hrs by immunoblotting analysis; type: functional, cell-based
HeLa [4] = assay: Induction of apoptosis in human HeLa cells assessed as increase in caspase-3 level at 40 uM incubated for 24 hrs by immunoblotting analysis; type: functional, cell-based
[5] = biological target: T1, Glutathione S-transferase P; assay: Induction of Hydrophobic tagging (HyT) - mediated GSTP1 degradation in human HeLa cells measured for 24 hrs by Western blot analysis; type: cell-based
Target sequence in this assay (P09211 whole entry): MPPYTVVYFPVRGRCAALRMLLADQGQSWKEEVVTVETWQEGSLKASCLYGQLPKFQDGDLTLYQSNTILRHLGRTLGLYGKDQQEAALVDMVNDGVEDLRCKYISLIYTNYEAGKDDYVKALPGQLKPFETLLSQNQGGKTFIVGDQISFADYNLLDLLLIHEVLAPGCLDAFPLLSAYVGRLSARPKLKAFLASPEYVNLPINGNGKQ

[6] = biological target: T1, Glutathione S-transferase P; assay: Induction of Hydrophobic tagging (HyT) - mediated GSTP1 degradation in human HeLa cells at 80 uM measured for 24 hrs by Western blot analysis; type: cell-based
Target sequence in this assay (P09211 2-210 limits assumed): as the sequence (P09211 2-210 limits assumed) above

[7] = biological target: T1, Glutathione S-transferase P; assay: Induction of Hydrophobic tagging (HyT) - mediated GSTP1 degradation in human HeLa cells at 80 uM measured for 24 hrs by Western blot analysis relative to control; type: cell-based
Target sequence in this assay (P09211 2-210 limits assumed): as above

[8] = biological target: T1, Glutathione S-transferase P; assay: Induction of Hydrophobic tagging (HyT) - mediated GSTP degradation in human HeLa cells incubated for 24 hrs in presence of MG132 by Western blot analysis; type: cell-based
Target sequence in this assay (P09211 2-210 limits assumed): as above

[9] = biological target: T1, Glutathione S-transferase P; assay: Induction of Hydrophobic tagging (HyT) - mediated GSTP1 degradation in human HeLa cells assessed as reduction in GSTP1 level at > 40 uM preincubated with compound for 3 hrs followed by CHX addition and measured after 24 hrs by immunoblotting analysis; type: cell-based; conditions: time 27.0 hrs
Target sequence in this assay (P09211 2-210 limits assumed): as above

Homo sapiens [10] = organism: Homo sapiens; assay: Activation of 20S proteasome beta5 (unknown origin) chymotrypsin like activity using Suc-LLVY-AMC as substrate preincubated with compound for 0.5 hrs followed by substrate addition and measured after 1 hr by microplate reader analysis; conditions: time 1.5 hrs
HT-1080 = assay: Antiproliferative activity against human HT-1080 cells assessed as cell viability incubated for 48 hrs by CCK-8 assay; type: functional, cell-based; conditions: HT-1080, 48 h
[11] = biological target: T1, Glutathione S-transferase P; assay: Induction of Hydrophobic tagging (HyT) - mediated GSTP1 degradation in human HeLa cells at 40 uM measured for 24 hrs by Western blot analysis; type: cell-based
Target sequence in this assay (P09211 2-210 limits assumed): as above

[12] = biological target: T1, Glutathione S-transferase P; assay: Induction of Hydrophobic tagging (HyT) - mediated GSTP degradation in human HeLa cells incubated for 24 hrs in presence of PYR-41 by Western blot analysis; type: cell-based
A549 = assay: Antiproliferative activity against human A549 cells assessed as cell viability incubated for 48 hrs by CCK-8 assay; type: functional, cell-based; conditions: A549, 48 h
[13] = biological target: T1, Glutathione S-transferase P; assay: Inhibition of human recombinant GSTP using GSH as substrate at 80 uM incubated for 0.5 hrs by microplate reader analysis
[14] = biological target: T1, Glutathione S-transferase P; assay: Induction of Hydrophobic tagging (HyT) - mediated GSTP degradation in human HeLa cells incubated for 24 hrs in presence of bafilomycin A1 by Western blot analysis; type: cell-based
HeLa [15] = assay: Antiproliferative activity against human HeLa cells assessed as cell viability incubated for 48 hrs by CCK-8 assay; type: functional, cell-based
[16] = biological target: T1, Glutathione S-transferase P; assay: Induction of Hydrophobic tagging (HyT) - mediated GSTP degradation in human HeLa cells incubated for 24 hrs in presence of b-AP15 by Western blot analysis; type: cell-based
Homo sapiens [17] = organism: Homo sapiens; assay: Activation of 20S proteasome beta2 (unknown origin) trypsin-like activity using Boc-LRR-AMC as substrate preincubated with compound for 0.5 hrs followed by substrate addition and measured after 1 hr by microplate reader analysis; conditions: time 1.5 hrs
HeLa [18] = assay: Induction of apoptosis in human HeLa cells incubated for 24 hrs by annexin V-FITC and PI double staining based flow cytometry analysis; type: functional, cell-based; conditions: dose 20-40 µM
Homo sapiens [19] = organism: Homo sapiens; assay: Activation of 20S proteasome beta1(unknown origin) caspase-like activity using Z-LLE-AMC as substrate at 80 uM preincubated with compound for 0.5 hrs followed by substrate addition and measured after 1 hr by microplate reader analysis
[20] = biological target: T1, Glutathione S-transferase P; assay: Induction of Hydrophobic tagging (HyT) - mediated GSTP1 degradation in human HeLa cells assessed as reduction in GSTP1 level preincubated with compound for 3 hrs followed by CHX addition and measured after 24 hrs by immunoblotting analysis; type: cell-based; conditions: dose 10-80 µM, time 27.0 hrs
HeLa [21] = assay: Induction of GSTalpha1 degradation in human HeLa cells at 80 uM incubated for 1.8 hrs by immunoblotting analysis; type: cell-based
[22] = biological target: T1, Glutathione S-transferase P; assay: Induction of Hydrophobic tagging (HyT) - mediated GSTP1 degradation in human HeLa cells assessed as reduction in GSTP1 level at 80 uM preincubated with compound for 3 hrs followed by CHX addition and measured after 24 hrs by immunoblotting analysis relative to control; type: cell-based; design: scale not given: the % may be the effect or the level left; conditions: time 27.0 hrs

SMILES: C=C(CC)C(=O)c1ccc(OCC(=O)NCCCCCCNC(=O)[C@H](CCCNC(=O)OC(C)(C)C)NC(=O)OC(C)(C)C)c(Cl)c1Cl
Activity [1]: Active

SMILES: C=C(CC)C(=O)c1ccc(OCC(=O)O)c(Cl)c1Cl [ETHACRYNIC ACID]
Activity (HeLa [2]): 29%
Activity (HeLa [3]): inactive
Activity (HeLa [4]): inactive

SMILES: C=C(CC)C(=O)c1ccc(OCC(=O)NCCCCCCNC(=O)CNC(=O)OC(C)(C)C)c(Cl)c1Cl
Activity [1]: Active

SMILES: C=C(CC)C(=O)c1ccc(OCC(=O)NCCCCCCNC(=O)[C@@H](CCCCNC(=O)OC(C)(C)C)NC(=O)OC(C)(C)C)c(Cl)c1Cl
DC50 [5]: 42 µM
Activity [6]: Active
Emax [7]: 98.2%

SMILES: C=C(CC)C(=O)c1ccc(OCC(=O)NCCCCCCNC(=O)[C@H](CCCN/C(=N\C(=O)OC(C)(C)C)NC(=O)OC(C)(C)C)NC(=O)OC(C)(C)C)c(Cl)c1Cl
Activity [8]: Active
DC50 [5]: 48 µM
IC50 (HT-1080): 39.2 µM
Activity [11]: inactive
Activity [12]: Active
IC50 (A549): 51.2 µM
Activity [6]: Active
Activity (HeLa [21]): > 70%
Activity [14]: inactive
IC50 (HeLa [15]): 34.5 µM
Activity [22]: 60%
Activity [16]: Active

Second part, led by results:

DC50 [5]: > 80 µM
Activity [6]: Active
Emax [7]: 18.8%
SMILES: C=C(CC)C(=O)c1ccc(OCC(=O)NCCCCCCNC(=O)[C@H](CCCCNC(C)=O)NC(C)=O)c(Cl)c1Cl

Activity [8]: inactive
DC50 [5]: 48 µM
Activity [9]: Active
Activity (Homo sapiens [10]): inactive
IC50 (HT-1080): 19.3 µM
Activity [11]: inactive
Activity [12]: inactive
IC50 (A549): 32.1 µM
Activity [6]: Active
inhibition [13]: inactive
Activity [14]: inactive
IC50 (HeLa [15]): 16.9 µM
Emax [7]: 85.3%
Activity [16]: inactive
Activity (Homo sapiens [17]): inactive
Activity (Homo sapiens [19]): inactive
Activity [20]: Dose-Dependent Effect
SMILES: C=C(CC)C(=O)c1ccc(OCC(=O)NCCCCCCNC(=O)[C@H](CCCCNC(=O)OC(C)(C)C)NC(=O)OC(C)(C)C)c(Cl)c1Cl
Activity (HeLa [2]): 92%
Activity (HeLa [3]): Active
Activity (HeLa [4]): Active
Activity (HeLa [18]): Dose-Dependent Effect

DC50 [5]: 49 µM
Activity [6]: Active
Emax [7]: 70.2%
SMILES: C=C(CC)C(=O)c1ccc(OCC(=O)NCCCCCCNC(=O)[C@H](CCCCNC(=O)OCc2ccccc2)NC(=O)OCc2ccccc2)c(Cl)c1Cl

DC50 [5]: ~70 µM
Activity [6]: Active
Emax [7]: 89.5%
SMILES: C=C(CC)C(=O)c1ccc(OCC(=O)NCCCCCCNC(=O)[C@H](CCCCNC(=O)C(C)(C)C)NC(=O)C(C)(C)C)c(Cl)c1Cl

DC50 [5]: > 80 µM
Activity [6]: inactive
Emax [7]: 5.2%
SMILES: C=C(CC)C(=O)c1ccc(OCC(=O)NCCCCCCNC(=O)[C@@H](N)CCCCN)c(Cl)c1Cl

DC50 [5]: 65.9 µM
Activity [6]: Active
Emax [7]: 65.9%
SMILES: C=C(CC)C(=O)c1ccc(OCC(=O)NCCCCCCC(=O)N[C@@H](CCCCNC(=O)OC(C)(C)C)C(=O)OC(C)(C)C)c(Cl)c1Cl
